Tests used:
SOD3 [1] = assay: Western blot expression of SOD3 in astrocytes pre-treated with Fe^3+; type: cell-based, mouse; details: 300 μM Fe^3+ 6 days, then 50 μM LA or 100 nM vitD 6 more days, p<0.05
astrocytes [2] = assay: Mitochondrial membrane potential (JC-1) under oxidative conditions; type: cell-based, mouse; details: 50 μM LA, 100 nM vitD; for mitochondrial potential without H2O2 (in words): p<0.05; for dissipation of the mitochondrial potential after post-treatment, with respect to H2O2 alone (in words): after 200 μM H2O2
cytochrome C = assay: Western blot expression of cytochrome C under oxidative conditions; type: cell-based, mouse; details: for expression of cytochrome C without H2O2 (in words): 50 μM LA, 100 nM vitD; for expression of cytochrome C after H2O2 (in words): stimulation after H2O2, p<0.05
astrocytes [3] = assay: MTT cell viability in astrocytes pre-treated with Fe^3+; type: cell-based, mouse; details: for cell viability after post-treatment following Fe^3+ (in words): 300 μM Fe^3+ 6 days, then treatment another 6 days
[4] = tested on: blood-brain barrier (BBB) experimental model; assay: Blood-brain barrier (BBB) experimental model permeability (astrocytes/HUVEC Transwell co-culture); details: 1440 min; 100 nM vitD, 50 μM LA alone
astrocytes [5] = assay: Production of ROS (superoxide anion release) under oxidative conditions; type: cell-based, mouse; details: for reduction of production of ROS with respect to H2O2 alone: post-treatment after 200 μM H2O2
p53 [6] = assay: Activity of p53 (ELISA) in astrocytes pre-treated with Fe^3+; type: cell-based, mouse; details: 300 μM Fe^3+ 6 days, then 50 μM LA, 100 nM vitD another 6 days
SOD3 [7] = assay: Western blot expression of SOD3 under oxidative conditions; type: cell-based, mouse; details: post-stimulation after 200 μM H2O2
iNOS = assay: Western blot expression of iNOS under oxidative conditions; type: cell-based, mouse; details: post-stimulation after 200 μM H2O2
[8] = tested on: amyloid precursor protein (APP); assay: Quantification of APP (ELISA) in astrocytes pre-treated with Fe^3+; type: cell-based, mouse; details: for reduction of level of APP against 300 μM Fe^3+: 300 μM Fe^3+ 6 days, then 50 μM LA, 100 nM vitD another 6 days
astrocytes [9] = assay: Production of ROS in astrocytes pre-treated with Fe^3+; type: cell-based, mouse; details: for reduction of production of ROS with respect to Fe^3+ alone: 300 μM Fe^3+ 6 days, then 50 μM LA, 100 nM vitD another 6 days
astrocytes [10] = assay: MTT cell viability, dose- and time-dependent, physiological conditions; type: cell-based, mouse; details: 1440 min, 50 μM LA, 100 nM vitD
Method: The cultures of mouse astrocytes were prepared from male and female C57BL/6 baby mice, following a known conventional technique according to the national guidelines for the use and care of laboratory animals. Basically, within 24 hours from birth, the baby mice were euthanized and the corticals were cut, […] minced, mechanically digested and left to rest for 30 minutes at ambient temperature. The cell suspension was then centrifuged at 800 rpm (revolutions per minute) for 5 minutes. The pelleted cells were resuspended in neuronal basal medium (Sigma-Aldrich), supplemented with fetal bovine serum at 5% (FBS, Gibco), penicillin/streptomycin 1% (Sigma-Aldrich) and L-glutamine 2 mM (Sigma-Aldrich), placed in multiple wells and kept in culture for 6 days prior to the treatment. […] Cell viability was determined by measuring absorbance at 570 nm with correction at 690 nm, using a spectrometer (VICTOR X4, multi-label plate reader) and calculated by comparing the results with the control. […] Firstly, the effect depending on the concentration of LA alone (comprised between 10 μM and 100 μM) on the cell viability over 24 hours (starting from 15 minutes to 1440 minutes) was analysed, with the aim of identifying the best concentration to be used. FIG. 1(a) illustrates the time-dependent and dose-response studies (ranging from 10 μM to 100 μM) of LA measured in astrocytes.

PI3K-Akt = PI3K-Akt activity (ELISA InstantOne) under oxidative conditions; type: cell-based, mouse; details: for PI3K-Akt activity without H2O2 (in words): 24 hours, 50 μM LA, 100 nM vitD; for Akt activity after post-treatment following H2O2 (in words): after 200 μM H2O2
PKA = assay: Western blot expression of p-PKA under oxidative conditions; type: cell-based, mouse; details: for expression of PKA without H2O2 (in words): 50 μM LA, 100 nM vitD; for expression of PKA after H2O2 (in words): post-stimulation after 200 μM H2O2
astrocytes [11] = assay: MTT cell viability under oxidative conditions (H2O2 pre-treatment); type: cell-based, mouse; details: for cell viability after post-treatment (in words): 200 μM H2O2 pre-treatment, then 50 μM LA, 100 nM vitD, 24 hours
astrocytes [12] = assay: Iron quantification assay in astrocytes pre-treated with Fe^3+; type: cell-based, mouse; details: for reduction of accumulation of iron against Fe^3+ alone: 300 μM Fe^3+ 6 days, then 50 μM LA, 100 nM vitD another 6 days
ERK/MAPK [13] = assay: ERK/MAPK activity (ELISA) in astrocytes pre-treated with Fe^3+; type: cell-based, mouse; details: 300 μM Fe^3+ 6 days, then treatment another 6 days, p<0.05
ERK/MAPK [14] = assay: ERK/MAPK activity (ELISA InstantOne) under oxidative conditions; type: cell-based, mouse; details: for ERK/MAPK activity without H2O2 (in words): 24 hours, 50 μM LA, 100 nM vitD; for ERK activity after post-treatment following H2O2 (in words): after 200 μM H2O2
p53 [15] = assay: Activity of p53 (ELISA on nuclear extracts) under oxidative conditions; type: cell-based, mouse; details: for activity of p53 without H2O2 vs control (in words): 50 μM LA, 100 nM vitD, p<0.05; for activity of p53 after H2O2 (in words): stimulation after 200 μM H2O2

Row | SMILES | expression of SOD3 after Fe^3+ (in words) (SOD3 [1]) | mitochondrial potential without H2O2 (in words) (astrocytes [2]) | dissipation of the mitochondrial potential after post-treatment, with respect to H2O2 alone (in words) (astrocytes [2]) | expression of cytochrome C without H2O2 (in words) (cytochrome C) | expression of cytochrome C after H2O2 (in words) (cytochrome C) | cell viability after post-treatment following Fe^3+ (in words) (astrocytes [3]) | absorption capacity through the blood-brain barrier (basolateral volume analysis) with respect to the control [4] | reduction of production of ROS with respect to H2O2 alone (astrocytes [5]; 50 μM LA, 100 nM vitD) | reduction of activation of p53 with respect to 300 μM Fe^3+ (p53 [6]) | expression of SOD3 with respect to 200 μM of H2O2 (in words) (SOD3 [7]) | expression of iNOS with respect to 200 μM of H2O2 (in words) (iNOS) | reduction of level of APP against 300 μM Fe^3+ [8] | reduction of production of ROS with respect to Fe^3+ alone (astrocytes [9]) | cell viability, maximum effect with respect to the control (astrocytes [10]) | PI3K-Akt activity without H2O2 (in words) (PI3K-Akt) | Akt activity after post-treatment following H2O2 (in words) (PI3K-Akt) | expression of PKA without H2O2 (in words) (PKA) | expression of PKA after H2O2 (in words) (PKA) | cell viability after post-treatment (in words) (astrocytes [11]) | reduction of accumulation of iron against Fe^3+ alone (astrocytes [12]) | further results
1 | O=C(O)CCCCC1CCSS1 (racemic) [LA, alpha-lipoic acid] | reduced | significant increase of the red fluorescence | significantly inverted | results similar to those obtained for p53 | reduced | cell viability leads to control values | ~40.5% | about 43% | about 84% | significantly reduced | significantly reduced | about 63% | about 68% | about 66% | activating ERK and Akt mediators | nullified the effects observed previously | significant increase | restored the mechanism | cell viability increased significantly | about 81% | production of ROS without H2O2 (in words) (astrocytes [5]; 50 μM LA, 100 nM vitD, no H2O2, p>0.05 vs control): maintaining the production of ROS below the physiological level; activation of ERK/MAPK with respect to 300 μM Fe^3+ (in words) (ERK/MAPK [13]): significant reduction; ERK/MAPK activity without H2O2 (in words) (ERK/MAPK [14]): activating ERK and Akt mediators; ERK activity after post-treatment following H2O2 (in words) (ERK/MAPK [14]): nullified the effects observed previously; activity of p53 without H2O2 vs control (in words) (p53 [15]): reduction of the activity of p53; activity of p53 after H2O2 (in words) (p53 [15]): reduced it significantly
2 | [Fe+3] [Fe^3+] |  |  |  |  |  |  |  |  |  |  |  |  |  |  |  |  |  |  |  |  | reduction of cell viability with respect to the control (astrocytes [3]; 300 μM Fe^3+, 6 days): about 23%; increase of level of APP with respect to the control ([8]; 300 μM Fe^3+, 6 days): about 43%; increase of production of intracellular ROS with respect to the control (astrocytes [9]; 300 μM Fe^3+, 6 days): about 60%; increase of intracellular iron accumulation with respect to the control (astrocytes [12]; 300 μM Fe^3+, 6 days): about 69%
3 | OO [H2O2] |  |  |  |  |  |  |  |  |  |  |  |  |  |  |  |  |  |  |  |  | increase of production of intracellular ROS with respect to the control (astrocytes [5]; 200 μM stressor alone): about 30%; reduction of activity of Akt with respect to the control (PI3K-Akt; 200 μM H2O2): ~7%; reduction of cell viability with respect to the control (astrocytes [11]; 200 μM H2O2): 46%; reduction of activity of ERK with respect to the control (ERK/MAPK [14]; 200 μM H2O2): about 6%
4 | C=C1CC[C@H](O)C/C1=C/C=C1\CCC[C@]2(C)[C@@H]([C@H](C)CCCC(C)C)CC[C@@H]12 [vitD, cholecalciferol] | reduced | significant increase of the red fluorescence | significantly inverted | results similar to those obtained for p53 | reduced | cell viability leads to control values | about 49.5% | ~57% | ~88% | significantly reduced | significantly reduced | ~55% | ~83% | about 22% | activating ERK and Akt mediators | nullified the effects observed previously | significant increase | restored the mechanism | cell viability increased significantly | ~88% | activation of ERK/MAPK with respect to 300 μM Fe^3+ (in words) (ERK/MAPK [13]): significant reduction; ERK/MAPK activity without H2O2 (in words) (ERK/MAPK [14]): activating ERK and Akt mediators; ERK activity after post-treatment following H2O2 (in words) (ERK/MAPK [14]): nullified the effects observed previously; activity of p53 without H2O2 vs control (in words) (p53 [15]): reduction of the activity of p53; activity of p53 after H2O2 (in words) (p53 [15]): reduced it significantly
